How the values were obtained:
SpCas9 = SpCas9 (Streptococcus pyogenes serotype M1, UniProt Q99ZW2); assay: eGFP disruption assay, SpCas9, U2OS.eGFP.PEST cells; format: cell-based; conditions: for Normalized Z rep1 / Z score Rep1: replicate 1; for SpCas9 eGFP disruption Rep1: replicate 1, raw readout; for Normalized Z rep2 / Z socre Rep2: replicate 2; for SpCas9 eGFP disruption Rep2: replicate 2, raw readout
Procedure, shortened: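 U2OS.eGFP.PEST cells nucleofected with 300 ng SpCas9 plasmid plus 30 ng eGFP-targeting gRNA plasmid, or with SpCas9 RNP (10 pmol protein, 12 pmol gRNA). Cells then incubated 24 h with compound (20 μM in screening). Inhibition is read as rescue of eGFP fluorescence in paraformaldehyde-fixed, nuclear-stained cells.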

SpCas9:gRNA complex = SpCas9:gRNA complex (Streptococcus pyogenes serotype M1, UniProt Q99ZW2); assay: STD NMR binding assay; conditions: 20 μM compound, 5 μM SpCas9:gRNA
Description: All samples were prepared with 20 μM of BRD7586 in a 20 mM […] buffer (pH 7.4) in D2O with or without 5 μM of SpCas9:gRNA in a 3 mm NMR tube. Experiments were performed on a 600 MHz (^19F: 564.71 MHz) Bruker AVANCE III NMR spectrometer equipped with a 5 mm QCI-F CryoProbe and a SampleJet for automated sample handling. To acquire the spectra, a standard one-pulse STD experiment with WALTZ-16 for proton decoupling during acquisition, a 5 s recycle delay, and 256 scans were used. All spectra were recorded at 280 K. NMR data were apodized with a 1-Hz exponential function prior to Fourier transformation. All spectra were baseline corrected, and peak widths and intensities were extracted using the automated line-fitting feature provided with the MNova software package.

Plasma stability assay = format: in vitro ADME; conditions: 2 μM, 50% mouse plasma in PBS, 2 h
Description: The stability of the compound in mouse plasma was assessed following a reported protocol.^50 BRD7586 (2 μM) was incubated with 50% mouse plasma (K2 EDTA, BioIVT) in PBS for 2 h in duplicate. Propantheline was included as a control.

[1] = Cas9 = lower control, Ctrl = upper control
[2] = normalized, lower control about 0, upper control about 1

Chain of SpCas9 (Q99ZW2 whole entry): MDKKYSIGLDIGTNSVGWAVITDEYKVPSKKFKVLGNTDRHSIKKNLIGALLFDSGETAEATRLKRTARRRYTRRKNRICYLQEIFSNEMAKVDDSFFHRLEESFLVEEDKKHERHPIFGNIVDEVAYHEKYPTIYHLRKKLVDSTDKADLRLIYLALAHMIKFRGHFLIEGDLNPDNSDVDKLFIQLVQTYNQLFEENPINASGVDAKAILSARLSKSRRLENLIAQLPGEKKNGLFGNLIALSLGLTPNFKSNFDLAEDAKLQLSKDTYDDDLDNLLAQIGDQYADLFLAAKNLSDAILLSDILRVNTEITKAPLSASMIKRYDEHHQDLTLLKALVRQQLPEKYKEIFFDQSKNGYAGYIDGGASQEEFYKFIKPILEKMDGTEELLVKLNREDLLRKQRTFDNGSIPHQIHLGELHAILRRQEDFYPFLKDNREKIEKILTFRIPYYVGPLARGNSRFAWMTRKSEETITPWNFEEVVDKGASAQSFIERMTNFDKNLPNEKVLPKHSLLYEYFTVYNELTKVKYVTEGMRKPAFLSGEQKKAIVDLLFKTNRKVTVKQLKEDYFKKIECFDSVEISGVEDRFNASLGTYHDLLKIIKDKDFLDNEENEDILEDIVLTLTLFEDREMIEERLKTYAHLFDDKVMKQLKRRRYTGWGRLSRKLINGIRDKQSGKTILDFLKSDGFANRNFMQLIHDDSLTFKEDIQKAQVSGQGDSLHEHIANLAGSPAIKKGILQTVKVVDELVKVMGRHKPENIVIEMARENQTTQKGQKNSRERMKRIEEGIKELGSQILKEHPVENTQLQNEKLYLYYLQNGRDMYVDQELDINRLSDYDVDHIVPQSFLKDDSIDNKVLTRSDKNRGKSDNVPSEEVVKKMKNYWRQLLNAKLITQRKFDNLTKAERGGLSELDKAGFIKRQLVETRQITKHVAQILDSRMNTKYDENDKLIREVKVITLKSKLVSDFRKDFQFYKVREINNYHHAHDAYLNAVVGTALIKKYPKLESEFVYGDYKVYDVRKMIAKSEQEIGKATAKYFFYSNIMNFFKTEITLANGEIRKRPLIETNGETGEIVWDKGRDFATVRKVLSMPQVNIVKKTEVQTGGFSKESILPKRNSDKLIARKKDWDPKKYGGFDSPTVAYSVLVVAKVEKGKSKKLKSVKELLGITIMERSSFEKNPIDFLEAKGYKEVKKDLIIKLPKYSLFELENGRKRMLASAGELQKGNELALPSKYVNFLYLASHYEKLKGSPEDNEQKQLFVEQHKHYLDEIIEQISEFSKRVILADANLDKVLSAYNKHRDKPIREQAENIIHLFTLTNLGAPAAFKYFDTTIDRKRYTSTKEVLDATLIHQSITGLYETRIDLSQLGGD
Chain of SpCas9:gRNA complex (Q99ZW2 whole entry, one chain of several): as the sequence (Q99ZW2 whole entry) above

Row | SMILES | EC50 (SpCas9; EC50 in eGFP disruption assay, U2OS.eGFP.PEST, SpCas9 plasmid and sgRNA plasmid, 0.3 uM to 20 uM, 24 h (FIG. 44A/C)) | EC50 (SpCas9; EC50 in the eGFP disruption assay, from three independent experiments) | Potency relative to BRD0539 (SpCas9; more potent than BRD0539) | STD NMR signal (SpCas9:gRNA complex) | Stability in mouse plasma (Plasma stability assay) | Normalized Z rep1 (SpCas9) | Z score Rep1 (SpCas9) | SpCas9 eGFP disruption Rep1 (SpCas9) | Normalized Z rep2 (SpCas9) | Z socre Rep2 (SpCas9) | SpCas9 eGFP disruption Rep2 (SpCas9) | SpCas9 eGFP disruption Rep1 (SpCas9; [1]) | Normalized Z rep1 (SpCas9; [2]) | SpCas9 eGFP disruption Rep2 (SpCas9; [1]) | Normalized Z rep2 (SpCas9; [2])
1 | O=C(CCS(=O)(=O)c1ccc(Cl)cc1)Nc1nc(-c2ccncc2)cs1 [BRD7586] | 5.55 µM | 6.2 ± 1.2 µM | ~2 fold | observed the STD NMR signal from marked protons | 40% | – | – | – | – | – | – | – | – | – | –
2 | c1ccc(Cc2nn3c(-c4cccnc4)nnc3s2)cc1 [Compound D727-0066] | – | – | – | – | – | −0.11 | −0.78 | 64.43 | −0.15 | −1.42 | 58.807 | – | – | – | –
3 | Cc1nc2ccccc2n1Cc1nnc2n1N=C(N)CS2 [Compound D727-0339] | – | – | – | – | – | −0.25 | −1.83 | 60.982 | −0.15 | −1.41 | 58.84 | – | – | – | –
4 | Cc1ccccc1OCc1nn2c(C(C)C)nnc2s1 [Compound D727-0350] | – | – | – | – | – | −0.47 | −3.41 | 55.746 | −0.04 | −0.36 | 61.985 | – | – | – | –
5 | Cc1ccccc1OCc1nn2c(C(C)(C)C)nnc2s1 [Compound D727-0351] | – | – | – | – | – | – | 0.29 | – | – | 1.32 | – | 67.967 | 0.04 | 67.06 | 0.14
6 | Brc1ccc(OCc2nn3c(-c4ccccn4)nnc3s2)cc1 [Compound D727-0522] | – | – | – | – | – | −0.12 | −0.85 | 64.203 | 0.08 | 0.79 | 65.458 | – | – | – | –
7 | Fc1ccc(OCc2nn3c(-c4ccccn4)nnc3s2)cc1 [Compound D727-0525] | – | – | – | – | – | −0.49 | −3.56 | 55.263 | −0.39 | −3.59 | 52.257 | – | – | – | –
8 | NC(=O)c1c(NC(=O)COCc2cc(-c3ccc4c(c3)OCO4)on2)sc2c1CCCC2 [Compound E613-0091] | – | – | – | – | – | −0.19 | −1.37 | 62.484 | −0.32 | −2.94 | 54.219 | – | – | – | –
9 | NS(=O)(=O)c1ccc(CCNC(=O)C2=Cc3sc4c(c3CS2)CCCC4)cc1 [Compound E722-2588] | – | – | – | – | – | −0.16 | −1.14 | 63.246 | 0.13 | 1.22 | 66.773 | – | – | – | –
10 | NC(=O)c1sc(=S)n2c1[nH]c(=O)c1ccc(Cl)cc12 [Compound F083-0067] | – | – | – | – | – | −0.09 | −0.66 | 64.842 | −0.23 | −2.14 | 56.626 | – | – | – | –
11 | CCCN1CCN(c2ccc(C(=O)O)cc2NC(=O)c2ccccc2Cl)CC1 [Compound F086-0004] | – | – | – | – | – | −0.17 | −1.20 | 63.051 | −0.29 | −2.70 | 54.937 | – | – | – | –
12 | CC(C)NC(=O)CN1CCN(c2ccc(C(=O)O)cc2NC(=O)c2ccccc2Cl)CC1 [Compound F086-0028] | – | – | – | – | – | −0.55 | −3.98 | 53.848 | −0.21 | −1.95 | 57.208 | – | – | – | –
13 | COCCCNC(=O)CN1CCN(c2ccc(C(=O)O)cc2NC(=O)c2ccccc2Cl)CC1 [Compound F086-0033] | – | – | – | – | – | −0.26 | −1.88 | 60.787 | −0.24 | −2.23 | 56.359 | – | – | – | –
14 | O=C(O)c1ccc(N2CCN(c3ccccn3)CC2)c(NC(=O)c2ccc(Br)cc2)c1 [Compound F086-0619] | – | – | – | – | – | −0.11 | −0.82 | 64.289 | −0.20 | −1.83 | 57.556 | – | – | – | –
15 | Nc1c(C(=O)N2CCCC2)sc(=S)n1Cc1ccccc1 [Compound F128-0041] | – | – | – | – | – | −0.05 | −0.34 | 65.885 | −0.15 | −1.37 | 58.95 | – | – | – | –
16 | Nc1c(C(=O)N2CCCCC2)sc(=S)n1Cc1ccccc1 [Compound F128-0042] | – | – | – | – | – | −0.22 | −1.57 | 61.817 | −0.36 | −3.35 | 52.985 | – | – | – | –
17 | Nc1c(C(=O)NCC2CCCO2)sc(=S)n1-c1ccc(Cl)cc1 (centres unmarked) [Compound F128-0076] | – | – | – | – | – | −0.08 | −0.57 | 65.12 | −0.12 | −1.11 | 59.748 | – | – | – | –
18 | CS(=O)(=O)Nc1cnc(N2CCC(C(N)=O)(N3CCCCC3)CC2)c(C(=O)O)c1 [Compound F293-0183] | – | – | – | – | – | −0.19 | −1.40 | 62.398 | −0.33 | −3.08 | 53.8 | – | – | – | –
19 | O=C(O)c1cc(NS(=O)(=O)c2cc(F)ccc2F)cnc1N1CCC(N2CCCCC2)CC1 [Compound F293-0616] | – | – | – | – | – | −0.36 | −2.62 | 58.357 | −0.03 | −0.30 | 62.171 | – | – | – | –
20 | CS(=O)(=O)Nc1cnc(N2CCC(CCN3CCOCC3)CC2)c(C(=O)O)c1 [Compound F293-0898] | – | – | – | – | – | −0.44 | −3.21 | 56.403 | −0.11 | −1.00 | 60.078 | – | – | – | –
21 | CN(C)S(=O)(=O)Nc1cnc(N2CCC(CCN3CCCCC3)CC2)c(C(=O)O)c1 [Compound F293-0962] | – | – | – | – | – | −0.18 | −1.30 | 62.732 | −0.33 | −3.10 | 53.726 | – | – | – | –
22 | CCN(Cc1ccccc1)c1ccc(NS(=O)(=O)c2ccc(OC)cc2)cc1C(=O)O [Compound F294-0003] | – | – | – | – | – | −0.48 | −3.46 | 55.595 | −0.10 | −0.96 | 60.198 | – | – | – | –
23 | CN(C)S(=O)(=O)Nc1ccc(N2CCC(C(N)=O)(N3CCCCC3)CC2)c(C(=O)O)c1 [Compound F294-0183] | – | – | – | – | – | −0.33 | −2.37 | 59.182 | −0.30 | −2.83 | 54.549 | – | – | – | –
24 | CN(C)S(=O)(=O)Nc1ccc(N2CCC(CCN3CCOCC3)CC2)c(C(=O)O)c1 [Compound F294-0900] | – | – | – | – | – | −0.19 | −1.40 | 62.393 | −0.24 | −2.23 | 56.357 | – | – | – | –
25 | CN(C)S(=O)(=O)Nc1ccc(N2CCCC(CN3CCCC3)C2)c(C(=O)O)c1 (centres unmarked) [Compound F294-0983] | – | – | – | – | – | −0.40 | −2.90 | 57.443 | −0.35 | −3.23 | 53.339 | – | – | – | –

Reference: patent US20240115557A1, “INHIBITORS OF RNA-GUIDED NUCLEASES AND USES THEREOF” (The Brigham and Women's Hospital, Inc., priority 2022, published 2024)
